Assay results taken from paper PMC11557929, “Environment-sensitive turn-on fluorescent probe enables live cell imaging of myeloperoxidase activity during NETosis” (Communications Chemistry, 2024).

Assays:
MPO [1] = target: T1, MPO (Homo sapiens, UniProt P05164); experiment: Amplex Red assay of MPO peroxidase activity; type: biochemical; conditions: for IC50: Amplex Red assay, t = 30 min, 100 pM MPO, 1 µM H2O2
T1 sequence (P05164 49-745): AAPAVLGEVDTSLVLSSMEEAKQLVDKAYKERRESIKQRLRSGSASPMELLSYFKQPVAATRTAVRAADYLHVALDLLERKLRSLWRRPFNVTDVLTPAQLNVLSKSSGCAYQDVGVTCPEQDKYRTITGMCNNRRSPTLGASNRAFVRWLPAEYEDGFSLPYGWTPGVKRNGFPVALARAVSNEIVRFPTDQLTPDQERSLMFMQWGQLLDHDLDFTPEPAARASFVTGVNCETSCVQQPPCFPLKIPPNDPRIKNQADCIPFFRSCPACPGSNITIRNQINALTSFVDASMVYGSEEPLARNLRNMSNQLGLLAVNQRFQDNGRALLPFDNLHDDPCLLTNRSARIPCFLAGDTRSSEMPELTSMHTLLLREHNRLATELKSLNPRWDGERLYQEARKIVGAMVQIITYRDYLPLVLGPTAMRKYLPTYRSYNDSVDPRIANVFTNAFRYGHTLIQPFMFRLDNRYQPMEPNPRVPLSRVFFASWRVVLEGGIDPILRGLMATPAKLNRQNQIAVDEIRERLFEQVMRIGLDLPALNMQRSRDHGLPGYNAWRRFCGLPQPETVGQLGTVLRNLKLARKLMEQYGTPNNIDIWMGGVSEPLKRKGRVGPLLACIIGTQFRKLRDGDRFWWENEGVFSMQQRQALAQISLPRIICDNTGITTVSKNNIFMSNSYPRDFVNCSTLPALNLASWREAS
From the text: Having obtained the fluorescent properties of probes 1-6, we determined their functional properties by the Amplex Red assay as previously reported (Table 1, Supplementary Figs. 1-6)[27]. In this assay, 10-acetyl-3,7-dihydroxyphenoxazine is oxidized by MPO in the presence of H2O2 to resorufin, a highly fluorescent compound with an fluorescence excitation and emission maxima of 571 and 585 nm, respectively. Fortunately, probes 1, 2, 4, 5, and 6 retained similar IC50 values as those previously reported for 2-thioxanthine-based inhibitors despite the presence of the environment-sensitive fluorophores[27],[33]. However, we noticed a slight negative trend in the IC50 of probes containing the shorter ethyl spacer. This effect was more evident in probe 3, which experienced a ~ 4-fold reduction in IC50 values compared to its counterpart probe 4.
MPO peroxidase activity and the determination of inhibitor potencies were performed as described before with minimal changes. In brief, to 78 uL of assay mixture (PBS (pH 7.4), 1 µM H2O2, and 20 µM Amplex Red) were added 2 μL of probe 1-6 in concentrations from 0 to 40 µM in DMSO (final DMSO concentration of 2%) and mixed for 1 min. The reactions were initiated by the addition of 20 μL 500 pM MPO (final MPO concentration of 100 pM) followed by mixing for 5 s. Fluorescent changes (RFU/s) were monitored at room temperature every 20 s for 30 min with excitation and emission filters set at 530 and 580 nm, respectively. Initial rates (V0) were determined using linear regression analysis of the first 600 s corresponding to the linear range of the DMSO control. To calculate IC50 values, V0 and probe concentration were fit to a dose-response curve with a standard Hill slope of -1 using nonlinear regression analysis. The kobs, kinact, and KI values for probe 1 were calculated exactly as described before.

[2] = system: MPO activity in human polymorphonuclear neutrophils (hPMN); experiment: Wash-free live-cell imaging of probes in hPMN during NETosis; type: cell-based; conditions: 100 nM PMA, probe near IC50, 3 h, 37 °C; for MFI (mean fluorescence intensity): whole images
Protocol: With probes 1-6 in hand, we opted for a cell-based screening strategy to find suitable probes to image MPO activity during NETosis (Fig. 1A). In this approach, we stimulated freshly isolated human polymorphonuclear neutrophils (hPMN) with PMA and incubated with probes 1-6 at concentrations near their IC50 for 3 h. […] Subsequently, probes that show a significant ‘’turn-on” fluorescence compared to unstimulated cells are selected and tested for colocalization with an anti-MPO antibody in fixed cells. With this cell-based strategy, potential suitable probes to image MPO activity during NETosis can be immediately identified. Therefore, live hPMN were incubated with PMA and probes 1-6 and imaged directly (Fig. 1B).
Colocalization analysis was performed with JaCoP[34].

[3] = Chemical stability in cell culture media (HPLC); type: physicochemical; conditions: cell culture media with or without serum, 4 and 24 h, 37 °C
Protocol: (§1) Furthermore, we confirmed the chemical stability of probe 1 in cell culture media with or without serum for 4 and 24 h at 37 °C (Supplementary Fig. 7).
(§2) To a stirring solution of the corresponding N-Boc aldehyde B1 or B2 (7.6 mmol) and AcOH (1.2 mmol) in dry CH3OH (30 mL) was added 4-amino-1H-imidazole-5-carboxamide (6.0 mmol). The reaction was stirred for 2.5 h under N2 before NaBH3CN (7.2 mmol) was added in one portion and the mixture was left stirring overnight under N 2. A solution of sat. aq. NaHCO3 was added and most of the CH3OH was removed in vacuo. The residue was extracted with EtOAc and the combined organic layers were dried over MgSO 4, filtered, and the crude product purified by flash silica gel column chromatog raphy (0-10% CH3OH/CH2Cl2) to give C1 or C2. […]
(§3) The solutions were incubated for 5 min and the fluorescence emission spectra was measured between 480 and 600 nm. […]
(§4) Probe 1 was diluted to 400 µM and incubated in CH3CN, RPMI 1640, or RPMI 1640 supplemented with 2% FCS for 0, 4, and 24 h at 37 °C under constant shaking. […] The supernatant was filtered and analyzed by HPLC. […]
(§5) Differentiation was assessed morphologically by fluorescent nuclear staining (Hoechst 33342) and by evaluation of CD11b expre ssion with a rat primary antibody directed against human CD11b (M1/70, Invitrogen, 1:400, 30 min, 4 °C) using a BD FACSVerse Flow Cytometer. Data were analyzed with FlowJo. […]

MPO [4] = target: T1, MPO; experiment: Fluorescence turn-on of probe with purified MPO; type: biochemical; conditions: 1 µM probe, 15 µM MPO, 150 µM H2O2, PBS (pH 7.4)
Protocol: as §1, §2, §3, §4, §5

[5] = system: MPO activity in human polymorphonuclear neutrophils (hPMN); experiment: Wash-free live-cell imaging of probes in hPMN during NETosis; type: cell-based; conditions: 4 µM ionomycin, 1 µM probe, 3 h
[6] = Fluorescence excitation and emission spectra in solvents of different polarity; type: physicochemical; conditions: for fluorescence increase in CH2Cl2 compared to PBS buffer (pH 7.4): approximate values
Protocol: To validate the solvatochromic properties of the probes, we recorded the fluorescence excitation and emission spectra of probes 1-6 in a 10 μM solution in CH2Cl2, CH3CN, CH3OH, and PBS buffer (pH 7.4, Table 1, Supplementary Table 1). These solvents have different polarities thereby emulating the hydrophobic enzyme-probe binding site environment (Supplementary Figs. 1-6). […] This effect was less prominent for 3 and 4 with a ~ 110-fold fluorescence increase, and for 5 and 6 with a ~ 30-fold fluorescence increase.
Probes 1-6 were prepared into 10 mM DMSO stock solutions and diluted to 10 μM with CH2Cl2, CH3CN, CH3OH, or PBS (pH 7.4). The fluorescence excitation spectra of each probe was measured between 300 and 480 nm for probes 1-4 and 300 and 500 nm for probes 5 and 6. The fluorescence emission spectra of each probe was measured between 480 and 700 nm for probes 1-4 and 500 and 700 nm for probes 5 and 6.

[7] = from kobs vs probe concentration

| SMILES | kinact/KI (MPO [1]) | IC50 (MPO [1]) | Ki (MPO [1]; [7]) | kinact (MPO [1]; [7]) | S/B (signal-to-background ratio) [2] | MFI (mean fluorescence intensity) [2] | chemical stability [3] | fluorescence increase with MPO compared to probe alone, ABAH pre-treated MPO or BSA (MPO [4]) | probe signal in ionomycin-stimulated cells [5] | fluorescence increase in CH2Cl2 compared to PBS buffer (pH 7.4) ([6]; 10 μM) | λem ([6]; CH2Cl2, 10 μM) | λex ([6]; CH2Cl2, 10 μM) | λem ([6]; PBS (pH 7.4), 10 μM) | λex ([6]; PBS (pH 7.4), 10 μM) | fluorescence increase at λem in CH2Cl2 compared to PBS (pH 7.4) ([6]; supplementary figure legends) |
| --- | --- | --- | --- | --- | --- | --- | --- | --- | --- | --- | --- | --- | --- | --- | --- |
| CN(C)c1ccc2c3c(cccc13)C(=O)N(CCn1c(=S)[nH]c(=O)c3[nH]cnc31)C2=O [Probe 1] | 4263 M^−^1s^−^1 | 854 ± 44 nM | 1080 ± 73 nM | 0.0046 ± 0.0001 s^−^1 | 16.7 | 6.9 gray values | chemically stable | ~ 13 fold | not significantly different from unstimulated background levels | ~ 300 fold | 510 nm | 415 nm | 560 nm | 457 nm |  |
| CN(C)c1ccc2c3c(cccc13)C(=O)N(CCOCCn1c(=S)[nH]c(=O)c3[nH]cnc31)C2=O [Probe 2] |  | 479 ± 17 nM |  |  | 11.7 | 3.0 gray values |  |  |  | ~ 300 fold | 512 nm | 415 nm | 560 nm | 446 nm |  |
| CN(C)S(=O)(=O)c1ccc(NCCn2c(=S)[nH]c(=O)c3[nH]cnc32)c2nonc12 [Probe 3] |  | 4570 ± 1830 nM |  |  | 8.9 | 1.5 gray values |  |  |  | ~ 110 fold | 532 nm | 417 nm | 600 nm | 435 nm |  |
| CN(C)S(=O)(=O)c1ccc(NCCOCCn2c(=S)[nH]c(=O)c3[nH]cnc32)c2nonc12 [Probe 4] |  | 1090 ± 151 nM |  |  | 7.3 | 1.8 gray values |  |  |  | ~ 110 fold | 535 nm | 420 nm | 600 nm | 435 nm |  |
| O=c1[nH]c(=S)n(CCNc2ccc([N+](=O)[O-])c3nonc23)c2nc[nH]c12 [Probe 5] |  | 497 ± 86 nM |  |  |  | < 0.1 gray values |  |  |  | ~ 30 fold | 522 nm | 452 nm | 558 nm | 473 nm | 40 x |
| O=c1[nH]c(=S)n(CCOCCNc2ccc([N+](=O)[O-])c3nonc23)c2nc[nH]c12 [Probe 6] |  | 388 ± 35 nM |  |  |  | < 0.1 gray values |  |  |  | ~ 30 fold | 517 nm | 452 nm | 558 nm | 488 nm |  |
